What all share (assay type): cell-based
The target of one test is T1, M1 muscarinic receptor (Homo sapiens, UniProt P11229).
T1 construct: expressed in transfected cells; host or cells: CHO (M1-CHO)
T1 sequence (P11229 1-460): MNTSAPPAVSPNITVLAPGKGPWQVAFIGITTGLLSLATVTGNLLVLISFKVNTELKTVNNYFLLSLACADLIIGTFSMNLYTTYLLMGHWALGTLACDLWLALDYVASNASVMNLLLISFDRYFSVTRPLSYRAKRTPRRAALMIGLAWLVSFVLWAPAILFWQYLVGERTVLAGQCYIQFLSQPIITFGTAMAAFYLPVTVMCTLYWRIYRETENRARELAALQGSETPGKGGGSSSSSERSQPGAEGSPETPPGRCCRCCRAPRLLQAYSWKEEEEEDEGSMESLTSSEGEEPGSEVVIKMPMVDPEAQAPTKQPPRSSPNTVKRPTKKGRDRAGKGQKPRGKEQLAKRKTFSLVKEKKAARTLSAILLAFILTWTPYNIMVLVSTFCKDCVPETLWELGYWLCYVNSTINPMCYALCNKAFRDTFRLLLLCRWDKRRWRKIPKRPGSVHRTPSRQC
In words: Functional mobilization of intracellular calcium (FLIPR) in CHO cells expressing M1. The following applies: for M1 Activity: CHO cells expressing M1, FLIPR calcium assay; for Emax: CHO, 100% efficacy = maximum response obtained with the Carbachol control. Put shortly:
(§1)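 Calcium flux is read on FLIPR over 60 sec at 488/540 nm in muscarinic-receptor CHO lines. Antagonist mode adds carbachol at EC80 after 15 min compound preincubation or with simultaneous co-application. Agonist mode adds compound alone. Cells carry Fluo-3 or Calcium 3 dye in probenecid-containing pH 7.4 buffer, 0.5% DMSO final.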
In general terms: Calcium assays in cells follow changes in intracellular calcium, usually with a dye or a luminescent sensor.

The target of the next test is T2, M2 muscarinic receptor (Homo sapiens, UniProt P08172).
T2 construct: expressed in transfected cells; host or cells: CHO (M2-CHO)
T2 sequence (P08172 1-466): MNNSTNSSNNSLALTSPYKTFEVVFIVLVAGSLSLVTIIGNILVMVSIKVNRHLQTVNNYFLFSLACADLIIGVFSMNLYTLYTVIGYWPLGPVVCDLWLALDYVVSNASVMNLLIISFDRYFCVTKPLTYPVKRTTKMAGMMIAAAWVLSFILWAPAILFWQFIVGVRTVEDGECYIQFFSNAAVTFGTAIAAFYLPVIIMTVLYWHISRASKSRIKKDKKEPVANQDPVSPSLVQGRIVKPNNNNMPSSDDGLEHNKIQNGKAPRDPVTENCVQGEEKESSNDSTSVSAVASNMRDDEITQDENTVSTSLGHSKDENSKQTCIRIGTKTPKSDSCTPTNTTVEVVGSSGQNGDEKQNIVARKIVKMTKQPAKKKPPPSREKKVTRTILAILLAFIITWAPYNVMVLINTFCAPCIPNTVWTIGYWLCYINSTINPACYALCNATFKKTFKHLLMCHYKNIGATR
The test is described as follows: Functional mobilization of intracellular calcium (FLIPR) in CHO cells expressing M2. To be noted: for M2 Activity: CHO cells expressing M2, FLIPR calcium assay; for Emax: CHO, 100% efficacy = maximum response obtained with the Carbachol control. Put shortly:
as §1

The next test concerns the target T3, M3 muscarinic receptor (Homo sapiens, UniProt P20309).
T3 construct: expressed in transfected cells; host or cells: CHO (M3-CHO)
The test is described as follows: Functional mobilization of intracellular calcium (FLIPR) in CHO cells expressing M3. To be noted: for M3 Activity: CHO cells expressing M3, FLIPR calcium assay; for Emax: CHO, 100% efficacy = maximum response obtained with the Carbachol control. In a few lines:
as §1

A further test concerns the target T4, M4 muscarinic receptor (Homo sapiens, UniProt P08173).
T4 construct: expressed in transfected cells; host or cells: CHO (M4-CHO)
T4 sequence (P08173 1-479): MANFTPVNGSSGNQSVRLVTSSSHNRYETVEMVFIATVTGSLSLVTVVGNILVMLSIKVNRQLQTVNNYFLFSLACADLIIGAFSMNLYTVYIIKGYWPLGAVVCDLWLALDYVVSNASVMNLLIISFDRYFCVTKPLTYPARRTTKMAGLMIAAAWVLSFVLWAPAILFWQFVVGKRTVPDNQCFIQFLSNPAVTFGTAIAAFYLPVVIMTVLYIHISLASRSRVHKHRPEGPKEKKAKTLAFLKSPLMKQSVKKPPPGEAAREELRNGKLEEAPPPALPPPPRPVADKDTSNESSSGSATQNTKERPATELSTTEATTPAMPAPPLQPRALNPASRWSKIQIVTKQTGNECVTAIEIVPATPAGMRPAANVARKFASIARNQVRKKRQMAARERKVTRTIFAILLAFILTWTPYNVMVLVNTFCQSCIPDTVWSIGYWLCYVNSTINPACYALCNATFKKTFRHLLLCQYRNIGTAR
The test is described as follows: Functional mobilization of intracellular calcium (FLIPR) in CHO cells expressing M4. To be noted: for M4 Activity: CHO cells expressing M4, FLIPR calcium assay; for Emax: CHO, 100% efficacy = maximum response obtained with the Carbachol control. In a few lines:
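Recombinant CHO cells loaded with Fluo-3 AM or Calcium 3 dye in pH 7.4 buffer containing 1 mM probenecid, with 0.5% final DMSO. For agonism, compound is added directly. For inhibition, it is preincubated 15 min, or co-applied, before carbachol at EC80. FLIPR fluorescence (ex 488, em 540 nm) is recorded for 60 s.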

The structures appear in SMILES notation. A value given as a limit tells only on which side of the number the result lay.

T3 sequence (P20309 whole entry): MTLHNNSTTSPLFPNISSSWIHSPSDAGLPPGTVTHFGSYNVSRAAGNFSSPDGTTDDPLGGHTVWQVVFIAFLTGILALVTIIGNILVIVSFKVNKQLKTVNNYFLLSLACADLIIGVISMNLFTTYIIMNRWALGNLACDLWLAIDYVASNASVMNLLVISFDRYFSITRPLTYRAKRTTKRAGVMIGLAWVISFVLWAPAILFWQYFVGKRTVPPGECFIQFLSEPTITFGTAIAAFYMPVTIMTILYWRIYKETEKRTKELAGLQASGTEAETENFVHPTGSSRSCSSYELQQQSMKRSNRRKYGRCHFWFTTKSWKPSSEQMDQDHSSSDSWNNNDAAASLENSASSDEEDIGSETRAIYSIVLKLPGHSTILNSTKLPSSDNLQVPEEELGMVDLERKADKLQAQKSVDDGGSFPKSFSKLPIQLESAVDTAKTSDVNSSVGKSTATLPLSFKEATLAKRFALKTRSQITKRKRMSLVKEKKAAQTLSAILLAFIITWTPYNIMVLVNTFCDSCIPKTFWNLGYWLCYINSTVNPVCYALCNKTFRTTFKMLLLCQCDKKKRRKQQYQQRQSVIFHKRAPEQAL

For `CC(C)CCN1CCC2(CC[C@H](N(C)C(=O)N(C)C)c3ccccc32)CC1` [compound 206], on M1 muscarinic receptor, the “M1 Activity” value is “+ (activity was measured to be greater than 5.0 μM)” and the Emax was less than 25%. Further, at M2 muscarinic receptor, the “M2 Activity” value was “+ (activity was measured to be greater than 5.0 μM)” and the Emax was less than 25%. Also, at M3 muscarinic receptor, the “M3 Activity” value is “+ (activity was measured to be greater than 5.0 μM)” and the Emax is less than 25%. On M4 muscarinic receptor, the “M4 Activity” value was “+++ (activity was measured to be less than 2.0 μM)” and the Emax was 25 to 100%.

Turning to `CCn1ccc(C(=O)N[C@H]2CCC3(CCN(CCC(C)(C)C)CC3)c3ccccc32)n1` [compound 207], at M1 muscarinic receptor, the “M1 Activity” value is “++ (activity was measured to be from 2.0 μM to 5.0 μM)” and the Emax was 25 to 100%. In addition, on M2 muscarinic receptor, the “M2 Activity” value was “+ (activity was measured to be greater than 5.0 μM)” and the Emax was less than 25%. Further, on M3 muscarinic receptor, the “M3 Activity” value is “+ (activity was measured to be greater than 5.0 μM)” and the Emax is less than 25%. For the same compound, at M4 muscarinic receptor, the “M4 Activity” value is “+++ (activity was measured to be less than 2.0 μM)” and the Emax lay within 25 to 100%.

Take `CC(C)COC(=O)N(C)[C@H]1CCC2(CCN(CCC(C)(C)C)CC2)c2ccccc21` [compound 208]: on M1 muscarinic receptor, the “M1 Activity” value was “+++ (activity was measured to be less than 2.0 μM)” and the Emax lay within 25 to 100%. Besides, at M2 muscarinic receptor, the “M2 Activity” value is reported as “+++ (activity was measured to be less than 2.0 μM)” and the Emax was less than 25%. On M3 muscarinic receptor, the “M3 Activity” value is recorded as “+ (activity was measured to be greater than 5.0 μM)” and the Emax is less than 25%. Also, at M4 muscarinic receptor, the “M4 Activity” value was “+++ (activity was measured to be less than 2.0 μM)” and the Emax was 25 to 100%.

In the case of `CC(C)(C)CCN1CCC2(CC[C@H](NC(=O)C3CCOCC3)c3ccccc32)CC1` [compound 209], on M1 muscarinic receptor, the “M1 Activity” value is “+++ (activity was measured to be less than 2.0 μM)” and the Emax was in the range of 25 to 100%. Further, at M2 muscarinic receptor, the “M2 Activity” value is “+ (activity was measured to be greater than 5.0 μM)” and the Emax is less than 25%. On M3 muscarinic receptor, the “M3 Activity” value is recorded as “+ (activity was measured to be greater than 5.0 μM)” and the Emax is less than 25%. At M4 muscarinic receptor, the “M4 Activity” value was “+++ (activity was measured to be less than 2.0 μM)” and the Emax lay within 25 to 100%.

Regarding `CCN(C(=O)CCC(C)=O)[C@@H]1CCC2(CCN(CCC(C)(C)C)CC2)c2ccccc21` [compound 210], on M1 muscarinic receptor, the “M1 Activity” value is “+++ (activity was measured to be less than 2.0 μM)” and the Emax was less than 25%. Further, on M2 muscarinic receptor, the “M2 Activity” value is recorded as “+ (activity was measured to be greater than 5.0 μM)” and the Emax was less than 25%. At M3 muscarinic receptor, the “M3 Activity” value is “+ (activity was measured to be greater than 5.0 μM)” and the Emax is less than 25%. On M4 muscarinic receptor, the “M4 Activity” value is on record as “+++ (activity was measured to be less than 2.0 μM)” and the Emax lay in the range of 25 to 100%.

With `CCN(C(C)=O)[C@H]1CCC2(CCN(CCC(C)(C)C)CC2)c2ccccc21` [compound 211], at M1 muscarinic receptor, the “M1 Activity” value is “+++ (activity was measured to be less than 2.0 μM)” and the Emax fell in the range of 25 to 100%. In addition, at M2 muscarinic receptor, the “M2 Activity” value is recorded as “+ (activity was measured to be greater than 5.0 μM)” and the Emax was less than 25%. Also, on M3 muscarinic receptor, the “M3 Activity” value is given as “+ (activity was measured to be greater than 5.0 μM)” and the maximal effect (Emax) was less than 25%. For the same compound, at M4 muscarinic receptor, the “M4 Activity” value is “+++ (activity was measured to be less than 2.0 μM)” and the Emax was 25 to 100%.

On to `COCCC(=O)N[C@@H]1CCC2(CCN(CCC(C)(C)C)CC2)c2cc(F)ccc21` [compound 212], for which, on M1 muscarinic receptor, the “M1 Activity” value is “+++ (activity was measured to be less than 2.0 μM)” and the Emax is 25 to 100%. On M2 muscarinic receptor, the “M2 Activity” value is “+ (activity was measured to be greater than 5.0 μM)” and the Emax is less than 25%. Moreover, at M3 muscarinic receptor, the “M3 Activity” value is listed as “+ (activity was measured to be greater than 5.0 μM)” and the Emax was less than 25%. For the same compound, at M4 muscarinic receptor, the “M4 Activity” value is given as “+++ (activity was measured to be less than 2.0 μM)” and the Emax was in the range of 25 to 100%.

With `CCN(C(C)=O)[C@H]1CCC2(CCN(CCC(C)C)CC2)c2ccccc21` [compound 213], at M1 muscarinic receptor, the “M1 Activity” value is reported as “++ (activity was measured to be from 2.0 μM to 5.0 μM)” and the Emax was 25 to 100%. Moreover, at M2 muscarinic receptor, the “M2 Activity” value is on record as “+ (activity was measured to be greater than 5.0 μM)” and the Emax is less than 25%. Also, on M3 muscarinic receptor, the “M3 Activity” value is on record as “+ (activity was measured to be greater than 5.0 μM)” and the maximal effect (Emax) was less than 25%. Further, on M4 muscarinic receptor, the “M4 Activity” value is reported as “+++ (activity was measured to be less than 2.0 μM)” and the Emax was 25 to 100%.

For the compound `CC(C)(C)CCN1CCC2(CC[C@@H](NC(=O)C3CC3)c3ccc(F)cc32)CC1` [compound 214], at M1 muscarinic receptor, the “M1 Activity” value is “+++ (activity was measured to be less than 2.0 μM)” and the Emax lay in the range of 25 to 100%. Besides, on M2 muscarinic receptor, the “M2 Activity” value is reported as “+++ (activity was measured to be less than 2.0 μM)” and the Emax was less than 25%. On M3 muscarinic receptor, the “M3 Activity” value is listed as “+ (activity was measured to be greater than 5.0 μM)” and the Emax is less than 25%. At M4 muscarinic receptor, the “M4 Activity” value is “+++ (activity was measured to be less than 2.0 μM)” and the Emax lay within 25 to 100%.

Regarding `COCCC(=O)N[C@H]1CCC2(CCN(CCC(C)(C)C)CC2)c2cc(F)ccc21` [compound 215], on M1 muscarinic receptor, the “M1 Activity” value is on record as “+++ (activity was measured to be less than 2.0 μM)” and the Emax lay within 25 to 100%. On M2 muscarinic receptor, the “M2 Activity” value was “+++ (activity was measured to be less than 2.0 μM)” and the Emax fell in the range of 25 to 100%. For the same compound, at M3 muscarinic receptor, the “M3 Activity” value was “+ (activity was measured to be greater than 5.0 μM)” and the Emax is less than 25%. On M4 muscarinic receptor, the “M4 Activity” value is on record as “+++ (activity was measured to be less than 2.0 μM)” and the Emax lay within 25 to 100%.

Take `Cc1cc(C(=O)N[C@@H]2CCC3(CCN(CCC(C)(C)C)CC3)c3ccccc32)nn1C` [compound 216]: on M1 muscarinic receptor, the “M1 Activity” value is listed as “++ (activity was measured to be from 2.0 μM to 5.0 μM)” and the Emax lay in the range of 25 to 100%. Also, at M2 muscarinic receptor, the “M2 Activity” value is “++ (activity was measured to be from 2.0 μM to 5.0 μM)” and the Emax fell in the range of 25 to 100%. On M3 muscarinic receptor, the “M3 Activity” value is on record as “+ (activity was measured to be greater than 5.0 μM)” and the Emax was less than 25%. On M4 muscarinic receptor, the “M4 Activity” value is on record as “+++ (activity was measured to be less than 2.0 μM)” and the Emax fell in the range of 25 to 100%.

Regarding `CC(C)(C)CCN1CCC2(CC[C@@H](NC(=O)C3CCOCC3)c3ccc(F)cc32)CC1` [compound 217], on M1 muscarinic receptor, the “M1 Activity” value is given as “++ (activity was measured to be from 2.0 μM to 5.0 μM)” and the Emax was 25 to 100%. On M2 muscarinic receptor, the “M2 Activity” value was “+ (activity was measured to be greater than 5.0 μM)” and the Emax is less than 25%. In addition, at M3 muscarinic receptor, the “M3 Activity” value is “+ (activity was measured to be greater than 5.0 μM)” and the Emax is less than 25%. On M4 muscarinic receptor, the “M4 Activity” value was “+++ (activity was measured to be less than 2.0 μM)” and the Emax was 25 to 100%.

What is called Emax is the greatest response seen or fitted, relative to the assay's reference.

The values above are taken from US8003660B2, “Modulators of muscarinic receptors” (Vertex Pharmaceuticals Incorporated, priority 2006, dated 2011).
